Measured values: patent US8697739B2, “Bicyclic acetyl-CoA carboxylase inhibitors and uses thereof” (Novartis AG, priority 2010, dated 2014)

Key:
in vitro = type: cell-based; conditions: human
Method: (§1) The effect of compounds on HCV infection was determined in vitro using cell cultured (HCVcc) genotype 2a (JFH-1 strain) virus. A renilla luciferase reporter gene was inserted in the viral genome, the expression of which was under the control of HCV 5′UTR (JFH-1^rLuc). Thus, the inhibition of HCV infection or replication can be indirectly measured by the reduction of luciferase activity in the cells. A specifically adapted hepatoma cell line, Huh 7.5, which allowed higher infectivity of HCV in vitro, was cultured in Dulbecco's modified Eagle's medium (DMEM) supplemented with 2 mM L-glutamine, 0.1 mM non-essential amino acids and 10% heat-inactivated fetal bovine serum. The cells were infected with JFH-1^rLuc virus at an MOI=0.01 and were treated at the same time with serially diluted compounds. After 72 hours, luciferase activities in compound-treated cells were measured using the Renilla Luciferase Assay System (Promega) and were compared to those in untreated control cells. Concentration-dependent inhibition curves were generated, from which EC50 values, the concentrations of compounds at which luciferase activities were reduced by 50% relative to untreated control, were calculated. In parallel, cytotoxicity of compounds was determine by measuring the viability of compound-treated cells using CellTiter 96® AQueous One Solution Cell Proliferation Assay (Promega). CC50 represented the concentration of the compound at which cell viability was reduced by 50% compared to untreated control.

[1] = target: T1, human acetyl-CoA carboxylase 2 (ACC2) (Homo sapiens, UniProt O00763); assay: Acetyl-CoA carboxylase enzyme assay (malonyl-CoA formation by LC/MS/MS); type: biochemical; conditions: recombinant human ACC2 (aa 144-2458); read-out: IC50 ACC2
T1 construct: The cDNA encoding amino acids 144 to 2458 of human acetyl-CoA carboxylase 2; made in house; host or cells: Sf9 insect cells (baculovirus, pFastBac1)
Method in brief: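 Malonyl-CoA formation was read by LC/MS/MS MRM against a [13C3]-malonyl-CoA internal standard, after acetic acid quench. The enzyme was baculovirus/Sf9-expressed human ACC2 residues 144–2458, given 15 minutes room-temperature compound preincubation in HEPES pH 7.5 buffer with MgCl2, citrate and DTT. Substrate solution held 50 μM acetyl-CoA, 120 μM ATP and 2 mM KHCO3.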

[2] = test system: HCVcc genotype 2a (JFH-1 strain) virus; assay: HCV assay: JFH-1 rLuc infection of Huh 7.5 cells, renilla luciferase readout; type: cell-based; conditions: Hepatitis C virus, Huh7.5; JFH-1 rLuc virus, MOI=0.01, Huh 7.5 cells, 72 hours, luciferase activity reduced by 50%
Method: as §1

T1 sequence (O00763 144-2458): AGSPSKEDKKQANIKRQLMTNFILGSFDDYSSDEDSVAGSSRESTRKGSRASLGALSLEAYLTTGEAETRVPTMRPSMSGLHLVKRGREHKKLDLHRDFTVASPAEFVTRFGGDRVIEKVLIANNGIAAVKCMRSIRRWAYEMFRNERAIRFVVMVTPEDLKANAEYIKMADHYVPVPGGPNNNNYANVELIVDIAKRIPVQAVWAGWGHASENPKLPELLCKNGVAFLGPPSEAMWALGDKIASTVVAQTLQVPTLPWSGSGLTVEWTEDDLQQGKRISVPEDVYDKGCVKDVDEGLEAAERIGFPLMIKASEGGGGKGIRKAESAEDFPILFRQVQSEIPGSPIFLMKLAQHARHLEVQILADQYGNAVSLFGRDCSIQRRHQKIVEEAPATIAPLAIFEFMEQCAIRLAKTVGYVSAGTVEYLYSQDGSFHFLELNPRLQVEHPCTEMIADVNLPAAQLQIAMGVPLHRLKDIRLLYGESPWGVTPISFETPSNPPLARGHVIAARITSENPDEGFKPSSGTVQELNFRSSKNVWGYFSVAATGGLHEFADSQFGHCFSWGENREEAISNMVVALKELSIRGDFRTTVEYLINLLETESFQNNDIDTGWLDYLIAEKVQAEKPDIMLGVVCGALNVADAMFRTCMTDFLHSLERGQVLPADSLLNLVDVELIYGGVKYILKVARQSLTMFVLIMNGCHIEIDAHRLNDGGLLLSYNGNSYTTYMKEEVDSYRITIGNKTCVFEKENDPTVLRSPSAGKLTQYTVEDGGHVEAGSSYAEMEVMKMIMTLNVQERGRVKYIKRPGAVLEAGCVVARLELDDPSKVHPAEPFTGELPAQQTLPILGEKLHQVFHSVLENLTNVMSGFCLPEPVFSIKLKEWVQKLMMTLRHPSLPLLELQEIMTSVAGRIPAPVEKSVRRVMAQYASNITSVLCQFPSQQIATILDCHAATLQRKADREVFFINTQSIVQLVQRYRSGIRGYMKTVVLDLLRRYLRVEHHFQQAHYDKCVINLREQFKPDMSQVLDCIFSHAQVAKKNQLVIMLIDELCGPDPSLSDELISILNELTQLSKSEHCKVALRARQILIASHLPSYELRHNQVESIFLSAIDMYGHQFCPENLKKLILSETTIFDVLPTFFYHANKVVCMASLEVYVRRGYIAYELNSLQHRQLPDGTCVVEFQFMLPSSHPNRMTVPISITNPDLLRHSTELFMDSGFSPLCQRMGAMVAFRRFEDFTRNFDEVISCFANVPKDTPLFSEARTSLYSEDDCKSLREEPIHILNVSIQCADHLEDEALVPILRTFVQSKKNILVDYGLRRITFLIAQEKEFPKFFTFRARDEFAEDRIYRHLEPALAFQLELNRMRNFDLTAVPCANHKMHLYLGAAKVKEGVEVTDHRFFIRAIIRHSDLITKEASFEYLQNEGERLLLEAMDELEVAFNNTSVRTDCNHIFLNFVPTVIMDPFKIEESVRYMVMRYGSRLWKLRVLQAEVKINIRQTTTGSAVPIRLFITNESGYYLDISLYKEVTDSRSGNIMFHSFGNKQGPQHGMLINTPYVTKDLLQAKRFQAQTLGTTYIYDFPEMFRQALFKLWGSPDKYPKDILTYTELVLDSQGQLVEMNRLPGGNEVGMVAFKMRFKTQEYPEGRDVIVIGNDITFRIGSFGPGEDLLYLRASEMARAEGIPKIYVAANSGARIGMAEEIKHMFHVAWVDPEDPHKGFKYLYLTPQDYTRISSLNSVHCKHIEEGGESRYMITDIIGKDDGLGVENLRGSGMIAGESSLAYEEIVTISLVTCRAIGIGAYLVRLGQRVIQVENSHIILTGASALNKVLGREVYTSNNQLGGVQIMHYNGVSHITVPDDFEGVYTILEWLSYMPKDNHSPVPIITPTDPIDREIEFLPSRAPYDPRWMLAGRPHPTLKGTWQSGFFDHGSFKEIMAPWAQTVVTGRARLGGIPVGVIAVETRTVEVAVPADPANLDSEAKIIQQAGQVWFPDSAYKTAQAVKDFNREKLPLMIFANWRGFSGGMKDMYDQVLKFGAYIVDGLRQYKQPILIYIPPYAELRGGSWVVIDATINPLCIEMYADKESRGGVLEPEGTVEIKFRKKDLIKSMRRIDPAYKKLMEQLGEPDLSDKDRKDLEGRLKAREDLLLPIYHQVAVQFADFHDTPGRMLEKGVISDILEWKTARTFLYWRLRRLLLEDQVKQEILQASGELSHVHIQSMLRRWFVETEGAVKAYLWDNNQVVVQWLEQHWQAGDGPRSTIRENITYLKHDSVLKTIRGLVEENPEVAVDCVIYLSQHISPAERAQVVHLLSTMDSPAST

Cn1c(C2CC2)cc2ccc(S(=O)(=O)N[C@H]3CC[C@H](C(=O)NC(C4CC4)C4CC4)CC3)cc21 [Example 459, (1r,4r)-4-(2-cyclopropyl-1-methyl-1H-indole-6-sulfonamido)-N-(dicyclopropylmethyl)cyclohexanecarboxamide]
CC50 at 72 h (in vitro): 26000 nM
IC50 [1]: 630 nM
EC50 [2]: 210 nM

C[C@@H](NC(=O)[C@H]1CC[C@H](NS(=O)(=O)c2cnc3c(c2)N(C(=O)OCCOCc2ccccc2)CCN3)CC1)c1ccc(F)cc1 [Example 208, 2-(benzyloxy)ethyl 7-(N-((1R,4r)-4-((R)-1-(4-fluorophenyl)ethylcarbamoyl)cyclohexyl)sulfamoyl)-3,4-dihydropyrido[3,2-b]pyrazine-1(2H)-carboxylate]
CC50 at 72 h (in vitro): > 16700 nM
IC50 [1]: 595 nM
EC50 [2]: 4740 nM

Cn1c(-c2ccccc2)cc2ccc(S(=O)(=O)N[C@H]3CC[C@H](C(=O)N4CCN(c5ncccn5)CC4)CC3)cc21 [Example 431, 1-methyl-2-phenyl-N-((1r,4r)-4-(4-(pyrimidin-2-yl)piperazine-1-carbonyl)cyclohexyl)-1H-indole-6-sulfonamide]
CC50 at 72 h (in vitro): > 33000 nM
IC50 [1]: 130 nM
EC50 [2]: 2230 nM

C[C@@H]1CN(C(=O)[C@H]2CC[C@H](NS(=O)(=O)c3ccc4c(Cl)c(-c5ccccc5)[nH]c4c3)CC2)C[C@H](C)O1 [Example 477, 3-chloro-N-((1R,4r)-4-((2S,6R)-2,6-dimethylmorpholine-4-carbonyl)cyclohexyl)-2-phenyl-1H-indole-6-sulfonamide]
CC50 at 72 h (in vitro): 12000 nM
IC50 [1]: < 10 nM
EC50 [2]: 40 nM

Cn1c(C2CC2)cc2ccc(S(=O)(=O)N[C@H]3CC[C@H](C(=O)N4CCOC[C@@H]4C4CC4)CC3)cc21 [Example 458, 2-cyclopropyl-N-((1S,4r)-4-((S)-3-cyclopropylmorpholine-4-carbonyl)cyclohexyl)-1-methyl-1H-indole-6-sulfonamide]
CC50 at 72 h (in vitro): > 33000 nM
IC50 [1]: 35 nM
EC50 [2]: 240 nM

COCCc1ccc(-c2[nH]c3cc(S(=O)(=O)N[C@H]4CC[C@H](C(=O)N5CCOC[C@@H]5C)CC4)ccc3c2Cl)cc1 [Example 31, 3-chloro-2-(4-(2-methoxyethyl)phenyl)-N-((1S,4r)-4-((S)-3-methylmorpholine-4-carbonyl)cyclohexyl)-1H-indole-6-sulfonamide]
CC50 at 72 h (in vitro): 24000 nM
IC50 [1]: < 10 nM
EC50 [2]: 140 nM

Cn1c(-c2ccc(CCC(=O)O)cc2)c(Cl)c2ccc(S(=O)(=O)N[C@H]3CC[C@H](C(=O)N4CCOC[C@@H]4C4CC4)CC3)cc21 [Example 28, 3-(4-(3-chloro-6-(N-((1S,4r)-4-((S)-3-cyclopropylmorpholine-4-carbonyl)cyclohexyl)sulfamoyl)-1-methyl-1H-indol-2-yl)phenyl)propanoic acid]
CC50 at 72 h (in vitro): > 33000 nM
IC50 [1]: < 10 nM
EC50 [2]: 510 nM

Cn1c(-c2ccccc2)cc2ccc(S(=O)(=O)N[C@H]3CC[C@H](C(=O)N4CC5(CN(C(=O)OC(C)(C)C)C5)C4)CC3)cc21 [Example 483, tert-butyl 6-((1r,4r)-4-(1-methyl-2-phenyl-1H-indole-6-sulfonamido)cyclohexanecarbonyl)-2,6-diazaspiro[3.3]heptane-2-carboxylate]
CC50 at 72 h (in vitro): 16000 nM
IC50 [1]: 75 nM
EC50 [2]: 40 nM

COCCc1ccc(-c2cc3ccc(S(=O)(=O)N[C@H]4CC[C@H](C(=O)N5CCOC[C@@H]5C)CC4)cc3[nH]2)cc1 [Example 30, 2-(4-(2-methoxyethyl)phenyl)-N-((1S,4r)-4-((S)-3-methylmorpholine-4-carbonyl)cyclohexyl)-1H-indole-6-sulfonamide]
CC50 at 72 h (in vitro): > 33000 nM
IC50 [1]: 10 nM
EC50 [2]: 710 nM

Cn1c(-c2ccccc2)cc2ccc(S(=O)(=O)N[C@H]3CC[C@H](C(=O)N4CCOC[C@@H]4C4CC4)CC3)cc21 [Example 479, N-((1S,4r)-4-((S)-3-cyclopropylmorpholine-4-carbonyl)cyclohexyl)-1-methyl-2-phenyl-1H-indole-6-sulfonamide]
CC50 at 72 h (in vitro): > 33000 nM
IC50 [1]: 10 nM
EC50 [2]: 1270 nM

CCOc1ccc2cc(S(=O)(=O)N[C@H]3CC[C@H](C(=O)N[C@H](COC(=O)[C@@H](NC)C(C)C)c4ccccc4)CC3)ccc2n1 [Example 272, (S)-((S)-2-((1r,4S)-4-(2-ethoxyquinoline-6-sulfonamido)cyclohexanecarboxamido)-2-phenylethyl) 3-methyl-2-(methylamino)butanoate]
CC50 at 72 h (in vitro): > 16700 nM
IC50 [1]: 175 nM
EC50 [2]: 14100 nM
